Laboratory results from US9643984B2, “Method for the preparation of [1,2,4]-triazolo[4,3-a]pyridines” (AMGEN, INC., priority 2013, dated 2017).

Test: solid-form stability of Compound A (humidity, temperature, air)
Assay type: physicochemical

relative humidity at which the monohydrate crystalline solid reversibly dehydrates (monohydrate crystalline solid isolated in Example 8) [% RH]	temperature up to which the monohydrate form is stable and robust (monohydrate form, solid)	SMILES	stability to air, moisture and elevated temperature (isolated as salt form (e.g., HCl salt) or monohydrate form)
< 11		COCCOc1cnc2ccn([C@H](C)c3nnc4c(F)cc(-c5cnn(C)c5)cn34)c(=O)c2c1 [Compound A, (R)-6-(1-(8-fluoro-6-(1-methyl-1H-pyrazol-4-yl)-[1,2,4]triazolo[4,3-a]pyridin-3-yl)ethyl)-3-(2-methoxyethoxy)-1,6-naphthyridin-5(6H)-one]	stable to air, moisture, and elevated temperature
	up to 50 °C	COCCOc1cnc2ccn([C@H](C)c3nnc4c(F)cc(-c5cnn(C)c5)cn34)c(=O)c2c1 [monohydrate form of Compound A]	
